Tested on: pre-established subcutaneous PC3 tumors
Test: Tumor growth in PC3 tumor-bearing mice treated i.v. twice a week
Assay type: in vivo, SCID-beige mice
Conditions: i.v. twice weekly from day 19 for ~3 weeks; taxol 5 mg/Kg, doxorubicin 2 mg/Kg, YSA conjugates at 1 and 5 fold molar equivalents of the parent drug dose
Experimental: Tumor sizes were measured and averages +/−SE are shown. The data in (A) and (B) are from the same experiment and share the same control.

| Structure (SMILES) | tumor growth inhibition compared with vehicle control |
| --- | --- |
| COc1cccc2c1C(=O)c1c(O)c3c(c(O)c1C2=O)C[C@@](O)(C(=O)CO)C[C@@H]3O[C@H]1C[C@H](N)[C@H](O)[C@H](C)O1 [doxorubicin] | not significantly different from vehicle control |
| CC(=O)O[C@H]1C(=O)[C@@]2(C)[C@H]([C@H](OC(=O)c3ccccc3)[C@]3(O)C[C@H](OC(=O)[C@H](O)[C@@H](NC(=O)c4ccccc4)c4ccccc4)C(C)=C1C3(C)C)[C@]1(OC(C)=O)CO[C@@H]1C[C@@H]2O [taxol] | not significantly different from vehicle control |

Reference: patent US20100240594A1, “TARGETED DELIVERY OF CHEMOTHERAPEUTIC AGENTS” (Burnham Institute for Medical Research, priority 2009, published 2010)
